# In patent US7074806B2, “Glucocorticoid mimetics, methods of making them, pharmaceutical compositions, and uses thereof” (Boehringer Ingelheim Pharmaceuticals, Inc., priority 2002, dated 2006):
# Target: T1, human glucocorticoid receptor (GR) complex (Homo sapiens, UniProt P04150)
# T1 construct: made in house; host or cells: insect expression system (baculovirus lysate)
# T1 sequence (P04150 1-777): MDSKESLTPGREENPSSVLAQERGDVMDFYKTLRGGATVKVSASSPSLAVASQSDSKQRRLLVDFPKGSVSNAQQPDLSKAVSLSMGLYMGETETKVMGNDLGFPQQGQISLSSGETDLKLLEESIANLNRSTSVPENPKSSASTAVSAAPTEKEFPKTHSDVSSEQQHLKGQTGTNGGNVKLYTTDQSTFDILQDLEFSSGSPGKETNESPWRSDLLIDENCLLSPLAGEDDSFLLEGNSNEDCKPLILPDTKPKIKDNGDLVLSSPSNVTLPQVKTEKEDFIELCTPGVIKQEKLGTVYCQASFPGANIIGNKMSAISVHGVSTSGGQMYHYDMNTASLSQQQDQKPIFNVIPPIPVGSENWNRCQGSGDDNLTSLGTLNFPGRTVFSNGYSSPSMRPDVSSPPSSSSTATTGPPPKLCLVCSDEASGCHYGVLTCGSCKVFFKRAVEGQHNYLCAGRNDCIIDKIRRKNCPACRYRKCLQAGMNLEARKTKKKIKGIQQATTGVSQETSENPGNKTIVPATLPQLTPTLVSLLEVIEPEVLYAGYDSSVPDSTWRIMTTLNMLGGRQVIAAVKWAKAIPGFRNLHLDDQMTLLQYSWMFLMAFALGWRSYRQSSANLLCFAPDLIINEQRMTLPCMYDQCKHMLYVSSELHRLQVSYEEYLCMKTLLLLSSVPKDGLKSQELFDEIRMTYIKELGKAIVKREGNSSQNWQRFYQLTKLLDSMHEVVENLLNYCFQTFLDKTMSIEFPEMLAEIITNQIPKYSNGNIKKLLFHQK
# Assay: Glucocorticoid Receptor Competitive Binding Assay (fluorescence polarization)
# Settings: competition with TAMRA-labeled dexamethasone for binding to GR; result in words only
# Method: Compounds of the invention were evaluated for binding to the steroid receptor by a fluorescence polarization competitive binding assay. Detailed descriptions for preparation of recombinant glucocorticoid receptor (GR) complex used in the assay is described in Goldrick et al., U.S. provisional application No. 60/291,877, filed May 18, 2001 (corresponding to Goldrick et al., U.S. nonprovisional application No. 10/151,133, filed May 20, 2002, both incorporated herein by reference in their entirety. Preparation of the tetramethyl rhodamine (TAMRA)-labeled dexamethasone probe was accomplished using a standard literature procedure (M. Pons et al., J. Steroid Biochem., 1985, 22, pp. 267–273).
# A. Glucocorticoid Receptor Competitive Binding Assay
# Step 1. Characterization of the Fluorescent Probe
# The wavelengths for maximum excitation and emission of the fluorescent probe should first be measured. An example of such a probe is rhodamine (TAMRA)-labeled dexamethasone.
# The affinity of the probe for the steroid receptor was then determined in a titration experiment. The fluorescence polarization value of the probe in assay buffer was measured on an SLM-8100 fluorometer using the excitation and emission maximum values described above. Aliquots of expression vector lysate were added and fluorescence polarization was measured after each addition until no further change in polarization value was observed. Non-linear least squares regression analysis was used to calculate the dissociation constant of the probe from the polarization values obtained for lysate binding to the probe.
# Step 2. Screening for Inhibitors of Probe Binding
# This assay uses fluorescence polarization (FP) to quantitate the ability of test compounds to compete with tetramethyl rhodamine (TAMRA)-labeled dexamethasone for binding to a human glucocorticoid receptor (GR) complex prepared from an insect expression system. The assay buffer was: 10 mM TES, 50 mM KCl, 20 mM Na2MoO4.2H2O, 1.5 mM EDTA, 0.04% w/v CHAPS, 10% v/v glycerol, 1 mM dithiothreitol, pH 7.4. Test compounds were dissolved to 1 mM in neat DMSO and then further diluted to 10×assay concentration in assay buffer supplemented with 10% v/v DMSO. Test compounds were serially diluted at 10×assay concentrations in 10% DMSO-containing buffer in 96-well polypropylene plates. Binding reaction mixtures were prepared in 96-well black Dynex microtiter plates by sequential addition of the following assay components to each well: […] of 10×test compound solution, 85 μL of GR-containing baculovirus lysate diluted 1:170 in assay buffer, and 50 μL of 15 nM TAMRA-labeled dexamethasone. Positive controls were reaction mixtures containing no test compound; negative controls (blanks) were reaction mixtures containing 0.7 μM to 2 μM dexamethasone. The binding reactions were incubated for 1 hour at room temperature and then read for fluorescence polarization in the LJL Analyst set to 550 nm excitation and 580 nm emission, with the Rhodamine 561 dichroic mirror installed. IC50 values were determined by iterative non-linear curve fitting of the FP signal data to a 4-parameter logistic equation.
row,Compound,activity in the GR binding assay
1,"COc1ccc(F)cc1C(C)(C)CC(N)(Cc1ccnc2ccccc12)C(F)(F)F (stereo not drawn) [Compound 12, 3-(5-Fluoro-2-methoxy-phenyl)-3-methyl-1-quinolin-4-ylmethyl-1-trifluoromethyl-butylamine]",demonstrated activity
2,"CNC(Cc1ccnc2ccccc12)(CC(C)(C)c1cc(F)ccc1OC)C(F)(F)F (stereo not drawn) [Compound 24, [3-(5-Fluoro-2-methoxy-phenyl)-3-methyl-1-quinolin-4-ylmethyl-1-trifluoromethyl-butyl]-methyl-amine]",demonstrated activity
3,"COc1ccc(F)cc1C(C)(C)CC(N)(Cc1cc2ccccc2[nH]1)C(F)(F)F (stereo not drawn) [Compound 2, 3-(5-Fluoro-2-methoxy-phenyl)-1-(1H-indol-2-ylmethyl)-3-methyl-1-trifluoromethyl-butylamine]",demonstrated activity

# More lines, now with the values ahead:
row,activity in the GR binding assay,Compound
1,demonstrated activity,"COc1ccc(F)cc1C(C)(C)CC(Cc1ccnc2ccccc12)(NCC(C)C)C(F)(F)F (stereo not drawn) [Compound 27, [3-(5-Fluoro-2-methoxy-phenyl)-3-methyl-1-quinolin-4-ylmethyl-1-trifluoromethyl-butyl]-isobutyl-amine]"
2,demonstrated activity,"CCCNC(Cc1ccnc2ccccc12)(CC(C)(C)c1cc(F)ccc1OC)C(F)(F)F (stereo not drawn) [Compound 26, [3-(5-Fluoro-2-methoxy-phenyl)-3-methyl-1-quinolin-4-ylmethyl-1-trifluoromethyl-butyl]-propyl-amine]"
3,demonstrated activity,"CCCCNC(Cc1ccnc2ccccc12)(CC(C)(C)c1cc(F)ccc1OC)C(F)(F)F (stereo not drawn) [Compound 28, Butyl-[3-(5-fluoro-2-methoxy-phenyl)-3-methyl-1-quinolin-4-ylmethyl-1-trifluoromethyl-butyl]-amine]"
